Results on three molecules are retold here after patent US20200239530A1, “COMPOUNDS AND METHODS OF MODULATING PROTEIN DEGRADATION” (Vividion Therapeutics, Inc., priority 2017, published 2020).

Holding throughout (assay): Cysteine liganding, probe competition
Common to all, as to assay type: binding

One experiment addresses T1, UniProt O43255 (Homo sapiens, UniProt O43255).
T1 construct: 200 μL of lysate containing 5 mg/ml proteome was treated with 2 μL of 100× compound stock; endogenous in cells
T1 sequence (O43255 1-324): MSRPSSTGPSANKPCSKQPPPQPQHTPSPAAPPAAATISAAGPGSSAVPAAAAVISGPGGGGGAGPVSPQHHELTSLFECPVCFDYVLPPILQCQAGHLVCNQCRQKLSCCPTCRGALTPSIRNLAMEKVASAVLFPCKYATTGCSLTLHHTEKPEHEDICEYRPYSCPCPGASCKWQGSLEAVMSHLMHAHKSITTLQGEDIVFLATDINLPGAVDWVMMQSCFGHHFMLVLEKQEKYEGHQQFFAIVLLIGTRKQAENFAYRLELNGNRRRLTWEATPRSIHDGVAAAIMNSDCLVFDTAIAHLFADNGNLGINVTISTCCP
The text has this:
(§1) The following 96-well sample prep protocol was used for sample preparation.

For a further experiment, the target named is T2, UniProt O43791 (Homo sapiens, UniProt O43791).
T2 construct: 200 μL of lysate containing 5 mg/ml proteome was treated with 2 μL of 100× compound stock; endogenous in cells
Description: as §1

In the next experiment the target is T3, UniProt Q8TEL6 (Homo sapiens, UniProt Q8TEL6).
T3 construct: 200 μL of lysate containing 5 mg/ml proteome was treated with 2 μL of 100× compound stock; endogenous in cells
T3 sequence (Q8TEL6 1-797): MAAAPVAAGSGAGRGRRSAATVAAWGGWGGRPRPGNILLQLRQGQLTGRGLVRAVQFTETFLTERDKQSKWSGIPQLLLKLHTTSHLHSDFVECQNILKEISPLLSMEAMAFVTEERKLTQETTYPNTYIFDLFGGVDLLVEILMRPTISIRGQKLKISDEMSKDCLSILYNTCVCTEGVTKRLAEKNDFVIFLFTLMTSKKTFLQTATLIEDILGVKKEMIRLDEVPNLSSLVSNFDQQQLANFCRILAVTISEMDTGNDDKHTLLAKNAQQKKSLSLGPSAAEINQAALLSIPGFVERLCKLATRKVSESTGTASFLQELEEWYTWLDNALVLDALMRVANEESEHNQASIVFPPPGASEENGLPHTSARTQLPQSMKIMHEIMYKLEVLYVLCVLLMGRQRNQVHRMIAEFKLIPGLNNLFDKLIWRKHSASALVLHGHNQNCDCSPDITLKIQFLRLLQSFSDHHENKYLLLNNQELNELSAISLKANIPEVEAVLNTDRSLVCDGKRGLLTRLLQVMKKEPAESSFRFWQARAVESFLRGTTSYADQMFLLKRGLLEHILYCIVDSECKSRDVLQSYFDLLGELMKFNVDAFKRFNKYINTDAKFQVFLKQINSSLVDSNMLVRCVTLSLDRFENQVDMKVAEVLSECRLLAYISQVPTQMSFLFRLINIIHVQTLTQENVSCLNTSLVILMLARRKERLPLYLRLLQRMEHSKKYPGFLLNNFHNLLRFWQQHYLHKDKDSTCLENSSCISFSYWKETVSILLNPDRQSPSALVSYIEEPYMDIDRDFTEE
Description: as §1

A further experiment deals with T4, UniProt Q9H0F5 (Homo sapiens, UniProt Q9H0F5).
T4 construct: 200 μL of lysate containing 5 mg/ml proteome was treated with 2 μL of 100× compound stock; endogenous in cells
To be noted: for percent_inhibition / inhibition at 500 µM: 500 uM.
Description: as §1

The next experiment has as its target T5, UniProt O96028 (Homo sapiens, UniProt O96028).
T5 construct: Cells were resuspended in cold PBS on ice and sonicated with a probe sonicator to achieve lysis; endogenous in cells
To be noted: 500 uM.
Description: as §1

For the next experiment, the target named is T6, UniProt Q13049 (Homo sapiens, UniProt Q13049).
T6 construct: 200 μL of lysate containing 5 mg/ml proteome was treated with 2 μL of 100× compound stock; endogenous in cells
Description: as §1

The next experiment concerns the target T7, UniProt Q13233 (Homo sapiens, UniProt Q13233).
T7 construct: Cells were resuspended in cold PBS on ice and sonicated with a probe sonicator to achieve lysis; endogenous in cells
Description: as §1

Another experiment has as its target T8, UniProt Q496Y0 (Homo sapiens, UniProt Q496Y0).
T8 construct: 200 μL of lysate containing 5 mg/ml proteome was treated with 2 μL of 100× compound stock; endogenous in cells
Description: as §1

A further experiment deals with T9, UniProt Q6ZNB6 (Homo sapiens, UniProt Q6ZNB6).
T9 construct: Cells were resuspended in cold PBS on ice and sonicated with a probe sonicator to achieve lysis; endogenous in cells
T9 sequence (Q6ZNB6 1-911): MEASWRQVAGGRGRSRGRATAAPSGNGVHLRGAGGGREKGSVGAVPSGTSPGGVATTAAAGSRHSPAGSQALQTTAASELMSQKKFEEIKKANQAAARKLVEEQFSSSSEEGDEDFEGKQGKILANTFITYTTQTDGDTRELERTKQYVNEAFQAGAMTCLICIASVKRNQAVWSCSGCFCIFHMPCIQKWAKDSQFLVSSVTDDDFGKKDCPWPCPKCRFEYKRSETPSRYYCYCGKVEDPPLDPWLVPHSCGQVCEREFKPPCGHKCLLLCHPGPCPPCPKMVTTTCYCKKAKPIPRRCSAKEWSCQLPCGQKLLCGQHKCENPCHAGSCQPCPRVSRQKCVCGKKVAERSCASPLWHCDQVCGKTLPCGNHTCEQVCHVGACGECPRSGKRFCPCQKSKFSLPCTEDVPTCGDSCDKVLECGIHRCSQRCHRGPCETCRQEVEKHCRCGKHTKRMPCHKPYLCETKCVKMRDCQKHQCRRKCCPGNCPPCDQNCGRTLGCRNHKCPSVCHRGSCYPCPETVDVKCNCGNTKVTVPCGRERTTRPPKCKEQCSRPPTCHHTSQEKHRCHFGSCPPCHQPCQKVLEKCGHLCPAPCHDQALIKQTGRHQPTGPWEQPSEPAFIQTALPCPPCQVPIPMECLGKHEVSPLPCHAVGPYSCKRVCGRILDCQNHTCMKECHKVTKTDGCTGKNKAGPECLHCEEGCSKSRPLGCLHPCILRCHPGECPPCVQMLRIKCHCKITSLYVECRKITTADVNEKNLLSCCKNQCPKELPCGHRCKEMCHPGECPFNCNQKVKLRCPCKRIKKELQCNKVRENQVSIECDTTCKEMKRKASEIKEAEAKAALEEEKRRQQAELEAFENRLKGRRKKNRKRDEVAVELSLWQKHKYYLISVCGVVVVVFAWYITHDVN
Particulars: for percent inhibition: 100 uM.
Description: as §1

For a further experiment, the target named is T10, UniProt Q969K3 (Homo sapiens, UniProt Q969K3).
T10 construct: 200 μL of lysate containing 5 mg/ml proteome was treated with 2 μL of 100× compound stock; endogenous in cells
Description: as §1

Setting [1] is: 100 uM, read-out: percent_inhibition.

T4 sequence (Q9H0F5 whole entry, change not shown): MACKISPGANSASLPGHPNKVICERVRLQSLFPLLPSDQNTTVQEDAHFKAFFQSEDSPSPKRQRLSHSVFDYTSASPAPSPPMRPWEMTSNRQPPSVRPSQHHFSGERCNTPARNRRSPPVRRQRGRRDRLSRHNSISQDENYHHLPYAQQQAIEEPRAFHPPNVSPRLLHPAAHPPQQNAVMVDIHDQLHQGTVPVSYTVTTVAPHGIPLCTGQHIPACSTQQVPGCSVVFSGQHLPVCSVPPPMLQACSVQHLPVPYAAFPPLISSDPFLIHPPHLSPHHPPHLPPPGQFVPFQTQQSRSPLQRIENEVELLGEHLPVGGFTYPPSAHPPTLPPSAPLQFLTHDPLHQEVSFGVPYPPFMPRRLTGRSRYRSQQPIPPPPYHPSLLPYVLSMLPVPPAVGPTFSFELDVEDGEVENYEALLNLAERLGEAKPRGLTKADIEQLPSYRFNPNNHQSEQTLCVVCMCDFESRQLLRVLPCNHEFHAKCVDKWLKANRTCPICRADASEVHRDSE
T8 sequence (Q496Y0 whole entry, change not shown): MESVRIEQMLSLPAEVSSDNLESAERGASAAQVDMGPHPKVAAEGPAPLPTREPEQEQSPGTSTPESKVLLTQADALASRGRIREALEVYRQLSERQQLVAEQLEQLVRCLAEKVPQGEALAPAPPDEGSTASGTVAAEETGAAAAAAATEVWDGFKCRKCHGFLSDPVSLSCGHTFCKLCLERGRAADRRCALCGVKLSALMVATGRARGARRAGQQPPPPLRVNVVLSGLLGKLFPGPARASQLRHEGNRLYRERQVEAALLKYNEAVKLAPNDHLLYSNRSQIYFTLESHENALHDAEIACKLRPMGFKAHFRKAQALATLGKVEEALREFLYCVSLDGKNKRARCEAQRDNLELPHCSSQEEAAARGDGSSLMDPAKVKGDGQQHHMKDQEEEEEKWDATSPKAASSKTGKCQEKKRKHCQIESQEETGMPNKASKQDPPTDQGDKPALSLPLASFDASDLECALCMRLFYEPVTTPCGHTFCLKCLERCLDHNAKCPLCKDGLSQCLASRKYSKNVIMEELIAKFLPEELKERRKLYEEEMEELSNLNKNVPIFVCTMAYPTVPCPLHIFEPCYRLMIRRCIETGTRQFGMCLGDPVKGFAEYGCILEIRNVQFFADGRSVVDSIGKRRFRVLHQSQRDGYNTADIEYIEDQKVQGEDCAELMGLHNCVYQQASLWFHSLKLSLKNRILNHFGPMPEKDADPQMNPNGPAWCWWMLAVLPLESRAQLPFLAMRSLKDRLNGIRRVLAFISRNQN
T10 sequence (Q969K3 whole entry, change not shown): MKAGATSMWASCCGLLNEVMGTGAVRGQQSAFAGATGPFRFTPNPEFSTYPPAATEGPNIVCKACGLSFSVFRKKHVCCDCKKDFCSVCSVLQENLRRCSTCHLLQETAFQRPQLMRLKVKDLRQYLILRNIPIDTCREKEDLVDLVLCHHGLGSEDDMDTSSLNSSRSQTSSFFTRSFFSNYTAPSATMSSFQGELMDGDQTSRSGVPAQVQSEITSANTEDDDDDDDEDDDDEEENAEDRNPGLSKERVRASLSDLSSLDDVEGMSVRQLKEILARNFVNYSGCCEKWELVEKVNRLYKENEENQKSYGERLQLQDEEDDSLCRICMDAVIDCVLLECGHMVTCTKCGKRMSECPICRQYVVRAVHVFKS
T7 sequence (Q13233 whole entry, change not shown): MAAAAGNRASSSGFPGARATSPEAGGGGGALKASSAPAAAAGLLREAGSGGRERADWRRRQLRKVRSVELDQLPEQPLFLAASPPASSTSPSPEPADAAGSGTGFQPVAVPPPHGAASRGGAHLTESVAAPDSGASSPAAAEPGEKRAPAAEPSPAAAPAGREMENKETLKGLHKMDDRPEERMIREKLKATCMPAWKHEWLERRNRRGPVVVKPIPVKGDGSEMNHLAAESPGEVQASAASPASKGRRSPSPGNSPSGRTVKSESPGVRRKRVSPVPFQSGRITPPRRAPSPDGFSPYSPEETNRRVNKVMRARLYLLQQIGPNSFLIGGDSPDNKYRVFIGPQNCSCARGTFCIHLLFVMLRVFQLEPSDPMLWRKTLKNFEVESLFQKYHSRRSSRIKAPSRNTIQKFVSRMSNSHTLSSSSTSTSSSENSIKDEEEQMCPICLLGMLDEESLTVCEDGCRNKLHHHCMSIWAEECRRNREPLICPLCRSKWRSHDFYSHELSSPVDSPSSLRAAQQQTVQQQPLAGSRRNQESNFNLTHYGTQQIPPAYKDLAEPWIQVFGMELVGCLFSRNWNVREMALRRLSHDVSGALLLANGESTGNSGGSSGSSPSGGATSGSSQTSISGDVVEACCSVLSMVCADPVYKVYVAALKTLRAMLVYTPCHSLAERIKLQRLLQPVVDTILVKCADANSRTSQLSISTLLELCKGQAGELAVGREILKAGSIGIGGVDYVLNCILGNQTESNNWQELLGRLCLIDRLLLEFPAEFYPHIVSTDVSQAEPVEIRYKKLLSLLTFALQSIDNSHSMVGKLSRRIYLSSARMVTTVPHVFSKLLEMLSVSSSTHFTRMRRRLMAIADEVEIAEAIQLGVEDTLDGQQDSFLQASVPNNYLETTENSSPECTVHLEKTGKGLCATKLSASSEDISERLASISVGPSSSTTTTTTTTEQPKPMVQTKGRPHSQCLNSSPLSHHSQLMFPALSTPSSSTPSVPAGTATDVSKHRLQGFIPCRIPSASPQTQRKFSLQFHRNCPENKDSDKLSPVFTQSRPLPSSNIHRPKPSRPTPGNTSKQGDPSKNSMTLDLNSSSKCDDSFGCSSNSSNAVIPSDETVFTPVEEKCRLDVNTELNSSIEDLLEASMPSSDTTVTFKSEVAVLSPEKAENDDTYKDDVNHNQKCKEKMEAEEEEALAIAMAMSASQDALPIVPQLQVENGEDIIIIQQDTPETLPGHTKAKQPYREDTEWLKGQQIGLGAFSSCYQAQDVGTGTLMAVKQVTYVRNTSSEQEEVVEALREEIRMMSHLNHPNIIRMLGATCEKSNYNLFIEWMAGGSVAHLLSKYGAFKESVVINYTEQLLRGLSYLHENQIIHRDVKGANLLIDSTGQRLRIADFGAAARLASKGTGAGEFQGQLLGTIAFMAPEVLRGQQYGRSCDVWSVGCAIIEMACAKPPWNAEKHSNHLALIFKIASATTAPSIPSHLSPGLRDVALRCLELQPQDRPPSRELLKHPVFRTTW
T2 sequence (O43791 whole entry, change not shown): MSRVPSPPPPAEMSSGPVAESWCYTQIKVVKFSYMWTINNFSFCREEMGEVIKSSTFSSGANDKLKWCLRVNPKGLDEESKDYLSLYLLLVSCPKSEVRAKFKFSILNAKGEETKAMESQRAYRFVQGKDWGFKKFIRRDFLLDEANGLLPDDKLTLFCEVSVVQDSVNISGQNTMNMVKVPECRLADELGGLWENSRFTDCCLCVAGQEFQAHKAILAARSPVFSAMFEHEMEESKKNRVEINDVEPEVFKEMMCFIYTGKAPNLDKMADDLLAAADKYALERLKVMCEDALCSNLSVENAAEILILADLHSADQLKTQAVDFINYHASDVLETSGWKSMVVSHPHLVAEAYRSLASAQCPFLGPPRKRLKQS
T6 sequence (Q13049 whole entry, change not shown): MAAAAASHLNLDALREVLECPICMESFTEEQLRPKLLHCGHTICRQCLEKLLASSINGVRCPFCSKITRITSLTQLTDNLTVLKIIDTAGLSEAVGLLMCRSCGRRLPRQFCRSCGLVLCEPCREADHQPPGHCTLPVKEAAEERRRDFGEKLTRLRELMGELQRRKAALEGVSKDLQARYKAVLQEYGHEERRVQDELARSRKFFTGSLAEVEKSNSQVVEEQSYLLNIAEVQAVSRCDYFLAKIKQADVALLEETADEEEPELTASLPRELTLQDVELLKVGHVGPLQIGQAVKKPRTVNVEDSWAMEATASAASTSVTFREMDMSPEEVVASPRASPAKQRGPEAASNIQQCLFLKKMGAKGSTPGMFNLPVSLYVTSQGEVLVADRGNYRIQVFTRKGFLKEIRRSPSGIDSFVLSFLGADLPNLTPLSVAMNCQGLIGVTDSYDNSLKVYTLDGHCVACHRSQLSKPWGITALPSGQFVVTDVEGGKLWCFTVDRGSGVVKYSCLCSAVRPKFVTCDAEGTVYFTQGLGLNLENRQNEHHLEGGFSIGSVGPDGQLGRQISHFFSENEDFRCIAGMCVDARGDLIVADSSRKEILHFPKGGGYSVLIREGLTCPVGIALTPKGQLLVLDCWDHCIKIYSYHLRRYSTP

Consider `COc1ccc2c(c1)CCCN2C(=O)CCl` [KB02], for which the percent_inhibition is on record as 20% on UniProt O43255 (100 uM) and 42% at UniProt Q9H0F5. The inhibition at 100 µM at UniProt O43255 (setting [1]) is 31%; at UniProt O43791 (read-out: percent_inhibition), 49%; on UniProt Q8TEL6 (100 uM, read-out: KB02_100 uM_percent_inhibition) it was 1%; at UniProt Q9H0F5 (setting [1]) it was 44%. In addition, the inhibition at 500 µM at UniProt Q9H0F5 (read-out: percent_inhibition) worked out at 24%.
As for `C=CC(=O)N(c1ccccc1)c1ccc(Br)cc1` [KB05], the inhibition at 500 µM worked out at 28% on UniProt O43255 (500 uM, read-out: percent_inhibition); 47% at UniProt Q496Y0 (500 uM, read-out: percent inhibition); 77% at UniProt Q8TEL6 (500 uM, read-out: KB05_500 uM_percent_inhibition); 16% at UniProt Q9H0F5 (read-out: percent_inhibition). In addition, the “KB05_500 uM_percent_inhibition” value stood at 79% at UniProt O96028 and 61% at UniProt Q8TEL6 (500 uM). In addition, the inhibition at 100 µM turned out to be 5% at UniProt Q13049 (read-out: KB05_100 uM_percent_inhibition); 31% at UniProt Q13233 (read-out: percent inhibition); 26% at UniProt Q496Y0 (100 uM, read-out: percent inhibition); 21% at UniProt Q6ZNB6 (read-out: percent inhibition); 8% at UniProt Q969K3 (read-out: percent_inhibition). Moreover, the percent inhibition on UniProt Q496Y0 (500 uM) stood at 52%; at UniProt Q6ZNB6, 36%. Moreover, the percent_inhibition on UniProt Q9H0F5 worked out at 10%.
As for `O=C(CCl)Nc1cc(C(F)(F)F)cc(C(F)(F)F)c1` [KBO3], the results for the percent_inhibition at UniProt O43791 (100 uM) and at UniProt Q969K3 (100 uM) were 57% and 18%, respectively. Also, the “KB03_500 uM_percent_inhibition” value at UniProt O96028 stood at 78%. For the same molecule, the “KB03_100 uM_percent_inhibition” value on UniProt Q13049 (100 uM) was 14%. The percent inhibition on UniProt Q13233 (100 uM) is reported as 19%; on UniProt Q496Y0 (500 uM), 26%; on UniProt Q6ZNB6, 20%.
